The values below come from BindingDB's records for doi:10.1021/jm0609622 (Schering-Plough Research Institute, 2006).

This test can be described thus: Inhibition of CXCL1-induced human neutrophil chemotaxis.

Consider `Cc1ccc([C@@H](C)Nc2c(Nc3cccc(C(=O)N(C)C)c3O)c(=O)c2=O)o1` [(R)-2-hydroxy-N,N-dimethyl-3-(2-(1-(5-methylfuran-2-yl)ethylamino)-3,4-dioxocyclobut-1-enylamino)benzamide], for which the midpoint of inhibition, the IC50, lay at 2.4 nM. This counts as single-digit nanomolar.
As for `CC[C@@H](Nc1c(Nc2cccc(C(=O)N(C)C)c2O)c(=O)c1=O)c1ccccc1` [(R)-3-(3,4-dioxo-2-(1-phenylpropylamino)cyclobut-1-enylamino)-2-hydroxy-N,N-dimethylbenzamide], the figure is 48 nM.

The IC50 is the concentration at which inhibition is half-maximal.
